{"source": "patent US20250235543A1", "about": "“MODIFIED PROTEINS AND PROTEIN DEGRADERS” (Cullgen (Shanghai), Inc., priority 2021, published 2025)", "key": {"[1]": {"target": "T1, CDK4 (Homo sapiens, UniProt P11802)", "T1 construct": "endogenous in cells; host or cells: Calu-1", "T1 sequence (P11802 2-303 limits assumed)": "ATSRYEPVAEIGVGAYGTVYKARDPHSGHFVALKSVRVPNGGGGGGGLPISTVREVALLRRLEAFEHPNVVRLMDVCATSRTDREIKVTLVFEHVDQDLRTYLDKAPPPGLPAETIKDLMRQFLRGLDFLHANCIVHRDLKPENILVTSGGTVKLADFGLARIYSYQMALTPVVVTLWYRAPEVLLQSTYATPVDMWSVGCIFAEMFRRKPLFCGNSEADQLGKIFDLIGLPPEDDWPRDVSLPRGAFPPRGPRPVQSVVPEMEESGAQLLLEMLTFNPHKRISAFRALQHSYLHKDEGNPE", "T1 sequence (P24385 whole entry partner)": "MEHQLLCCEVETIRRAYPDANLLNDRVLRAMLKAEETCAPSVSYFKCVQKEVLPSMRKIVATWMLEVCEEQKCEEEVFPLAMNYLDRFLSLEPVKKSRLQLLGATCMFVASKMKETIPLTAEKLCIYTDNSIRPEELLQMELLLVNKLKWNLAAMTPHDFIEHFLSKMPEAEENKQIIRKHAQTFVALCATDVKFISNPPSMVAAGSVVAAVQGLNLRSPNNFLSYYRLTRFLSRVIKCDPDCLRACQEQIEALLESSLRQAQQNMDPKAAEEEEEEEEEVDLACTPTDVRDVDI", "T1 sequence (Q16531 2-1140 limits assumed, further chain)": "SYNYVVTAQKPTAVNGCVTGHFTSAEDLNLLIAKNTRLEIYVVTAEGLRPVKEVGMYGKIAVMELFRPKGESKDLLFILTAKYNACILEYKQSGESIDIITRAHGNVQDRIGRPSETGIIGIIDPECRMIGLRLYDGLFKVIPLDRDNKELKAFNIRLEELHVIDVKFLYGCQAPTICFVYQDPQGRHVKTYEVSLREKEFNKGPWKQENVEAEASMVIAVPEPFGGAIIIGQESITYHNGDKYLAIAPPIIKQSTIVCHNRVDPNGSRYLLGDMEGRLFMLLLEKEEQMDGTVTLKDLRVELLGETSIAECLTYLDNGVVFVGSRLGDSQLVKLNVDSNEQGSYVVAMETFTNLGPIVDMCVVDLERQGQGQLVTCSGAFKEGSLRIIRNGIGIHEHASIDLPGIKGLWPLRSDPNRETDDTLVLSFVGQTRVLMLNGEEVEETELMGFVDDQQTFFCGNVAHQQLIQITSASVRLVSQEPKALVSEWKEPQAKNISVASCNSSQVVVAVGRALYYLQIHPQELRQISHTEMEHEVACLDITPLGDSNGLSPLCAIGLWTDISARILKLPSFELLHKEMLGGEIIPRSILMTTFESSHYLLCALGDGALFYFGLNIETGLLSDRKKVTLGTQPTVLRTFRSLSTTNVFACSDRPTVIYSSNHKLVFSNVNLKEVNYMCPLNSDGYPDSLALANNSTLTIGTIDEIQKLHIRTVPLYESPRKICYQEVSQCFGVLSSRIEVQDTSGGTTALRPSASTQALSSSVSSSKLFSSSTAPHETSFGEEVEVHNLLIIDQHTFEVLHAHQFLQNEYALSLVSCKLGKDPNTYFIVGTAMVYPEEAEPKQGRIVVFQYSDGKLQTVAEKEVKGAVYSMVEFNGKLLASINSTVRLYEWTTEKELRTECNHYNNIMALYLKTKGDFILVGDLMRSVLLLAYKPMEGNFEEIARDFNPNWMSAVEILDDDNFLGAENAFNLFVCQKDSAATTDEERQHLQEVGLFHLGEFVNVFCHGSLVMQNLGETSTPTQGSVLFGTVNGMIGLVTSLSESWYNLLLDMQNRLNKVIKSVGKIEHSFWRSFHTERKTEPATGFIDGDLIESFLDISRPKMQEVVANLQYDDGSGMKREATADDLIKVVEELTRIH", "experiment": "CDK4 percentage degradation in Calu-1 cells (immunoblotting)", "assay_type": "cell-based", "conditions": "for inhibition at 10 µM: read-out: CDK4 Degradation (10 μM); for inhibition at 0.2 µM: read-out: CDK4 Degradation (200 nM)", "experimental": "(§1) […] A: protein percentage degradation >=80%; B: protein percentage degradation <80%, and >=50%; C: protein percentage degradation <50%, and >=30%; D: protein percentage degradation <30%.\n(§2) Cultured cells were washed with cold PBS once and lysed in cold RIPA buffer supplemented with protease inhibitors and phosphatase inhibitors (Beyotime Biotechnology). The solutions were then incubated at 4° C. for 30 min with gentle agitation to fully lysed cells. Cell lysates were centrifuged at 13,000 rpm for 10 min at 4° C. and pellets were discarded. Total protein concentrations in the lysates were determined following BCA assays (Beyotime Biotechnology). Cell lysates were mixed with Laemmli loading buffer and heated at 99° C. for 5 min. Proteins were resolved on SDS-PAGE and visualized using Western ECL Substrate kits on a ChemiDoc MP Imaging system (Bio-Rad). Protein bands were quantitated using the Image Lab software provided by Bio-Rad."}, "[2]": {"tested_on": "cyclin D1", "experiment": "Cyclin D1 percentage degradation in Calu-1 cells (immunoblotting)", "assay_type": "cell-based", "conditions": "16 hours", "experimental": "as §1, §2"}}, "note": "Where two headings read alike, the source gives them in different places.", "data": [{"smiles": "Cc1nc(NC(=O)c2ccccc2NC(=O)CCOCCOCCOCCOCCOCCOCCNC(=O)CN2CCN(c3ccc(Nc4ncc5cc6n(c5n4)C4(CCCCC4)CNC6=O)nc3)CC2)sc1C", "note": "[CPD-327, N-(4,5-Dimethylthiazol-2-yl)-2-(2-oxo-1-(4-(6-((6′-oxo-7′,8′-dihydro-6′H-spiro[cyclohexane-1,9′-pyrazino[1′,2′:1,5]pyrrolo[2,3-d]pyrimidin]-2′-yl)amino)pyridin-3-yl)piperazin-1-yl)-6,9,12,15,18,21-hexaoxa-3-azatetracosan-24-amido)benzamide]", "values": [{"measurement": "inhibition at 10 µM", "setting": "[1]; Calu-1 cells, 16 hours", "value": "50 to 80", "unit": "%"}, {"measurement": "CyclinD1 Degradation (10 μM)", "setting": "[2]", "value": "A (protein percentage degradation >= 80%)"}]}, {"smiles": "CC(=O)c1c(C)c2cnc(Nc3ccc(N4CCN(CC(=O)NCCOCCOCCOCCOCCOCCNc5ccc(C(=O)Nc6ncc(Cl)s6)c(C)c5)CC4)cn3)nc2n(C2CCCC2)c1=O", "note": "[CPD-005, 4-((1-(4-(6-((6-Acetyl-8-cyclopentyl-5-methyl-7-oxo-7,8-dihydropyrido[2,3-d]pyrimidin-2-yl)amino)pyridin-3-yl)piperazin-1-yl)-2-oxo-6,9,12,15,18-pentaoxa-3-azaicosan-20-yl)amino)-N-(5-chlorothiazol-2-yl)-2-methylbenzamide]", "values": [{"measurement": "inhibition at 0.2 µM", "setting": "[1]; Calu-1 cells, 200 nM, 16 hours", "value": "< 30", "unit": "%"}, {"measurement": "CyclinD1 Degradation (200 nM)", "setting": "[2]", "value": "D (protein percentage degradation <30%)"}]}, {"smiles": "Cc1nc(NC(=O)c2ccccc2NC(=O)CCOCCOCCOCCOCCOCCNC(=O)CN2CCN(c3ccc(Nc4ncc(F)c(-c5cc(F)c6nc(C)n(C(C)C)c6c5)n4)nc3)CC2)sc1C", "note": "[CPD-312, N-(4,5-Dimethylthiazol-2-yl)-2-(1-(4-(6-((5-fluoro-4-(4-fluoro-1-isopropyl-2-methyl-1H-benzo[d]imidazol-6-yl)pyrimidin-2-yl)amino)pyridin-3-yl)piperazin-1-yl)-2-oxo-6,9,12,15,18-pentaoxa-3-azahenicosan-21-amido)benzamide]", "values": [{"measurement": "inhibition at 10 µM", "setting": "[1]; Calu-1 cells, 16 hours", "value": "< 30", "unit": "%"}, {"measurement": "CyclinD1 Degradation (10 μM)", "setting": "[2]", "value": "A (protein percentage degradation >= 80%)"}]}, {"smiles": "CC(=O)c1c(C)c2cnc(Nc3ccc(N4CCN(CC(=O)NCCOCCOCCC(=O)Nc5cc(Cl)ccc5C(=O)Nc5nc(C)c(C)s5)CC4)cn3)nc2n(C2CCCC2)c1=O", "note": "[CPD-140, 2-(3-(2-(2-(2-(4-(6-((6-Acetyl-8-cyclopentyl-5-methyl-7-oxo-7,8-dihydropyrido[2,3-d]pyrimidin-2-yl)amino)pyridin-3-yl)piperazin-1-yl)acetamido)ethoxy)ethoxy)propanamido)-4-chloro-N-(4,5-dimethylthiazol-2-yl)benzamide]", "values": [{"measurement": "inhibition at 0.2 µM", "setting": "[1]; Calu-1 cells, 200 nM, 16 hours", "value": "50 to 80", "unit": "%"}, {"measurement": "CyclinD1 Degradation (200 nM)", "setting": "[2]", "value": "A (protein percentage degradation >=80%)"}]}, {"smiles": "Cc1nc(NC(=O)c2ccccc2NC(=O)CCOCCNC(=O)CN2CCN(c3ccc(Nc4ncc5cc(C(=O)N(C)C)n(C6CCCC6)c5n4)nc3)CC2)sc1C", "note": "[CPD-294, 7-Cyclopentyl-2-((5-(4-(2-((2-(3-((2-((4,5-dimethylthiazol-2-yl)carbamoyl)phenyl)amino)-3-oxopropoxy)ethyl)amino)-2-oxoethyl)piperazin-1-yl)pyridin-2-yl)amino)-N,N-dimethyl-7H-pyrrolo[2,3-d]pyrimidine-6-carboxamide]", "values": [{"measurement": "inhibition at 10 µM", "setting": "[1]; Calu-1 cells, 16 hours", "value": "50 to 80", "unit": "%"}, {"measurement": "CyclinD1 Degradation (10 μM)", "setting": "[2]", "value": "A (protein percentage degradation >= 80%)"}]}, {"smiles": "CC(=O)c1c(C)c2cnc(Nc3ccc(N4CCN(C(=O)CCCCC(=O)Nc5ccccc5C(=O)Nc5nc(C)c(C)s5)CC4)cn3)nc2n(C2CCCC2)c1=O", "note": "[CPD-156, 2-(6-(4-(6-((6-Acetyl-8-cyclopentyl-5-methyl-7-oxo-7,8-dihydropyrido[2,3-d]pyrimidin-2-yl)amino)pyridin-3-yl)piperazin-1-yl)-6-oxohexanamido)-N-(4,5-dimethylthiazol-2-yl)benzamide]", "values": [{"measurement": "inhibition at 0.2 µM", "setting": "[1]; Calu-1, 16 h", "value": "< 30", "unit": "%"}, {"measurement": "CyclinD1 Degradation (200 nM)", "setting": "[2]", "value": "D (protein percentage degradation <30%)"}]}, {"smiles": "CC(=O)c1c(C)c2cnc(Nc3ccc(N4CCN(CC(=O)NCCCNc5cccc(C(=O)Nc6nc(C)c(C)s6)c5C)CC4)cn3)nc2n(C2CCCC2)c1=O", "note": "[CPD-098, 3-((3-(2-(4-(6-((6-Acetyl-8-cyclopentyl-5-methyl-7-oxo-7,8-dihydropyrido[2,3-d]pyrimidin-2-yl)amino)pyridin-3-yl)piperazin-1-yl)acetamido)propyl)amino)-N-(4,5-dimethylthiazol-2-yl)-2-methylbenzamide]", "values": [{"measurement": "inhibition at 0.2 µM", "setting": "[1]; Calu-1 cells, 200 nM, 16 hours", "value": "< 30", "unit": "%"}, {"measurement": "CyclinD1 Degradation (200 nM)", "setting": "[2]", "value": "D (protein percentage degradation <30%)"}]}, {"smiles": "CC(=O)c1c(C)c2cnc(Nc3ccc(N4CCN(CC(=O)NCCCCCCCCCNc5ccccc5C(=O)Nc5nc(C)c(C)s5)CC4)cn3)nc2n(C2CCCC2)c1=O", "note": "[CPD-268, 2-((9-(2-(4-(6-((6-Acetyl-8-cyclopentyl-5-methyl-7-oxo-7,8-dihydropyrido[2,3-d]pyrimidin-2-yl)amino)pyridin-3-yl)piperazin-1-yl)acetamido)nonyl)amino)-N-(4,5-dimethylthiazol-2-yl)benzamide]", "values": [{"measurement": "inhibition at 0.2 µM", "setting": "[1]; Calu-1 cells, 200 nM, 16 hours", "value": "50 to 80", "unit": "%"}, {"measurement": "CyclinD1 Degradation (200 nM)", "setting": "[2]", "value": "A (protein percentage degradation >=80%)"}]}, {"smiles": "CC(=O)c1c(C)c2cnc(Nc3ccc(N4CCN(CC(=O)NCCOCCOCCC(=O)Nc5ccc(F)cc5C(=O)Nc5nc(C)c(C)s5)CC4)cn3)nc2n(C2CCCC2)c1=O", "note": "[CPD-152, 2-(3-(2-(2-(2-(4-(6-((6-Acetyl-8-cyclopentyl-5-methyl-7-oxo-7,8-dihydropyrido[2,3-d]pyrimidin-2-yl)amino)pyridin-3-yl)piperazin-1-yl)acetamido)ethoxy)ethoxy)propanamido)-N-(4,5-dimethylthiazol-2-yl)-5-fluorobenzamide]", "values": [{"measurement": "inhibition at 0.2 µM", "setting": "[1]; Calu-1 cells, 200 nM, 16 hours", "value": "50 to 80", "unit": "%"}, {"measurement": "CyclinD1 Degradation (200 nM)", "setting": "[2]", "value": "A (protein percentage degradation >=80%)"}]}, {"smiles": "Cc1nc(NC(=O)c2ccccc2NC(=O)CCOCCOCCNC(=O)CN2CCN(c3ccc(Nc4ncc(F)c(-c5cc(F)c6nc(C)n(C(C)C)c6c5)n4)nc3)CC2)sc1C", "note": "[CPD-309, N-(4,5-Dimethylthiazol-2-yl)-2-(3-(2-(2-(2-(4-(6-((5-fluoro-4-(4-fluoro-1-isopropyl-2-methyl-1H-benzo[d]imidazol-6-yl)pyrimidin-2-yl)amino)pyridin-3-yl)piperazin-1-yl)acetamido)ethoxy)ethoxy)propanamido)benzamide]", "values": [{"measurement": "inhibition at 10 µM", "setting": "[1]; Calu-1 cells, 16 hours", "value": "30 to 50", "unit": "%"}, {"measurement": "CyclinD1 Degradation (10 μM)", "setting": "[2]", "value": "D (protein percentage degradation < 30%)"}]}, {"smiles": "CC(=O)c1c(C)c2cnc(Nc3ccc(N4CCN(CC(=O)NCCOCCOCCOCCOCCOCCNc5ccc(C(=O)Nc6ccccc6)c(C)c5)CC4)cn3)nc2n(C2CCCC2)c1=O", "note": "[CPD-027, 4-((1-(4-(6-((6-Acetyl-8-cyclopentyl-5-methyl-7-oxo-7,8-dihydropyrido[2,3-d]pyrimidin-2-yl)amino)pyridin-3-yl)piperazin-1-yl)-2-oxo-6,9,12,15,18-pentaoxa-3-azaicosan-20-yl)amino)-2-methyl-N-phenylbenzamide]", "values": [{"measurement": "inhibition at 0.2 µM", "setting": "[1]; Calu-1, 16 h", "value": "< 30", "unit": "%"}, {"measurement": "CyclinD1 Degradation (200 nM)", "setting": "[2]", "value": "D (protein percentage degradation <30%)"}]}, {"smiles": "CC(=O)c1c(C)c2cnc(Nc3ccc(N4CCN(CC(=O)NCCOCCOCCC(=O)Nc5c(C(=O)Nc6ccc(C)cn6)ccc6ncccc56)CC4)cn3)nc2n(C2CCCC2)c1=O", "note": "[CPD-362, 5-(3-(2-(2-(2-(4-(6-((6-Acetyl-8-cyclopentyl-5-methyl-7-oxo-7,8-dihydropyrido[2,3-d]pyrimidin-2-yl)amino)pyridin-3-yl)piperazin-1-yl)acetamido)ethoxy)ethoxy)propanamido)-N-(5-methylpyridin-2-yl)quinoline-6-carboxamide]", "values": [{"measurement": "inhibition at 0.2 µM", "setting": "[1]; Calu-1 cells, 200 nM, 16 hours", "value": "< 30", "unit": "%"}, {"measurement": "CyclinD1 Degradation (200 nM)", "setting": "[2]", "value": "D (protein percentage degradation <30%)"}]}, {"smiles": "CC(=O)c1c(C)c2cnc(Nc3ccc(N4CCN(CC(=O)NCCCCCCCCCNC(=O)c5ccc(C(=O)Nc6ncc(C)s6)c(C)c5)CC4)cn3)nc2n(C2CCCC2)c1=O", "note": "[CPD-024, N^4-(9-(2-(4-(6-((6-Acetyl-8-cyclopentyl-5-methyl-7-oxo-7,8-dihydropyrido[2,3-d]pyrimidin-2-yl)amino)pyridin-3-yl)piperazin-1-yl)acetamido)nonyl)-2-methyl-N^1-(5-methylthiazol-2-yl)terephthalamide]", "values": [{"measurement": "inhibition at 0.2 µM", "setting": "[1]; Calu-1 cells, 200 nM, 16 hours", "value": "< 30", "unit": "%"}, {"measurement": "CyclinD1 Degradation (200 nM)", "setting": "[2]", "value": "D (protein percentage degradation <30%)"}]}, {"smiles": "Cc1nc(NC(=O)c2ccccc2NC(=O)CCNC(=O)CN2CCN(c3ccc(Nc4ncc5cc6n(c5n4)C4(CCCCC4)CNC6=O)nc3)CC2)sc1C", "note": "[CPD-315, N-(4,5-Dimethylthiazol-2-yl)-2-(3-(2-(4-(6-((6′-oxo-7′,8′-dihydro-6′H-spiro[cyclohexane-1,9′-pyrazino[1′,2′:1,5]pyrrolo[2,3-d]pyrimidin]-2′-yl)amino)pyridin-3-yl)piperazin-1-yl)acetamido)propanamido)benzamide]", "values": [{"measurement": "inhibition at 10 µM", "setting": "[1]; Calu-1 cells, 16 hours", "value": "< 30", "unit": "%"}, {"measurement": "CyclinD1 Degradation (10 μM)", "setting": "[2]", "value": "D (protein percentage degradation < 30%)"}]}, {"smiles": "Cc1nc(NC(=O)c2ccccc2NC(=O)CCOCCOCCOCCOCCOCCOCCNC(=O)CN2CCN(c3ccc(Nc4ncc5cc(C(=O)N(C)C)n(C6CCCC6)c5n4)nc3)CC2)sc1C", "note": "[CPD-299, 7-Cyclopentyl-2-((5-(4-(24-((2-((4,5-dimethylthiazol-2-yl)carbamoyl)phenyl)amino)-2,24-dioxo-6,9,12,15,18,21-hexaoxa-3-azatetracosyl)piperazin-1-yl)pyridin-2-yl)amino)-N,N-dimethyl-7H-pyrrolo[2,3-d]pyrimidine-6-carboxamide]", "values": [{"measurement": "inhibition at 10 µM", "setting": "[1]; Calu-1 cells, 16 hours", "value": "30 to 50", "unit": "%"}, {"measurement": "CyclinD1 Degradation (10 μM)", "setting": "[2]", "value": "B (protein percentage degradation < 80%, and >= 50%)"}]}, {"smiles": "CC(=O)c1c(C)c2cnc(Nc3ccc(N4CCN(C(=O)CC(=O)Nc5ccccc5C(=O)Nc5nc(C)c(C)s5)CC4)cn3)nc2n(C2CCCC2)c1=O", "note": "[CPD-158, 2-(3-(4-(6-((6-Acetyl-8-cyclopentyl-5-methyl-7-oxo-7,8-dihydropyrido[2,3-d]pyrimidin-2-yl)amino)pyridin-3-yl)piperazin-1-yl)-3-oxopropanamido)-N-(4,5-dimethylthiazol-2-yl)benzamide]", "values": [{"measurement": "inhibition at 0.2 µM", "setting": "[1]; Calu-1, 16 h", "value": "< 30", "unit": "%"}, {"measurement": "CyclinD1 Degradation (200 nM)", "setting": "[2]", "value": "D (protein percentage degradation <30%)"}]}]}
